# Legend:
# SCMAS protein = SCMAS protein storage in neurons (immunofluorescence staining and western blot); format: cell-based, human; details: CLN3^Δex7/8 neurons
# Experimental: Sample preparation: for adherent cultured cells, exemplified by cells cultured in a six-well cell plate, the cell medium was aspirated and the cells were washed once with dPBS. About 100 μL of RIPA lysate (50 mM Tris-HCl, pH 7.5, 150 mM NaCl, 0.25% Na-deoxycholate, 0.1% NP-40, 0.1% Triton X-100) containing protease inhibitors and phosphatase inhibitors was added to each well. The cell lysate was scraped off completely with a cell scraper and collected into 1.5 mL EP tubes. Lysis was continued for 30 minutes on ice. For animal tissue, the weight of the animal tissue was weighed, and RIPA lysate containing protease inhibitors and phosphatase inhibitors was added with five times the volume of the animal tissue. The tissue was grinded on ice with a tissue grinder until there is no obvious tissue mass, collected into 1.5 mL EP tubes, and placed on ice for further lysis for 30 min. […]
# KEAP1 protein = target: T1, KEAP1 protein (Homo sapiens, UniProt Q14145); experiment: Quantitative thiol reactivity analysis; format: binding; details: CLN3^Δex7/8 human neural stem cells, 30 μM, 2 hours, mass spectrometry
# T1 construct: mass spectrometry was used to analyze the thiol reactivity of the cysteine residues on KEAP1 in the lysate; endogenous in cells; host or cells: CLN3 Δex7/8 human neural stem cells differentiated from H9 human embryonic stem cells
# T1 sequence (Q14145 whole entry): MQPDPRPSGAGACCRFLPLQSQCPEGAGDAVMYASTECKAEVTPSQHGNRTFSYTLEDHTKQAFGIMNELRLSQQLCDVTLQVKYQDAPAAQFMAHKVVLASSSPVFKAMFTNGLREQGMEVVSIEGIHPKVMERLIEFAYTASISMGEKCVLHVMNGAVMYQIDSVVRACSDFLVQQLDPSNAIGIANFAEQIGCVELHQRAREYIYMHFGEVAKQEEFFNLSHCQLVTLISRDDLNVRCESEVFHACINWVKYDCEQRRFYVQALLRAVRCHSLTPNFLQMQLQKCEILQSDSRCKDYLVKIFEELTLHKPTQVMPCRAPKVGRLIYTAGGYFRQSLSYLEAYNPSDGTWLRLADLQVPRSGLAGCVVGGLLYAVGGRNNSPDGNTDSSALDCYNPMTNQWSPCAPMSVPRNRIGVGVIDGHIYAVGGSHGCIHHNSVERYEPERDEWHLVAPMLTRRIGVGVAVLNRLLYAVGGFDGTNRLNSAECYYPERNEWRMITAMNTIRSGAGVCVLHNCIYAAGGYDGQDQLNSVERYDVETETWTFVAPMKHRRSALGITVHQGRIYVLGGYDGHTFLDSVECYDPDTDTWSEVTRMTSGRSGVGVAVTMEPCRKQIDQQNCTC
# Experimental: To determine the protein covalently bound to Compound G, a Compound G-binding proteomic analysis with the following steps was performed: neural stem cells were cultured in 10 cm cell culture dishes to a cell density of 90%. 1-2 mg of protein could be obtained after the neural stem cells in a 10 cm cell culture dish are lysed; the supernatant was aspirated, fresh medium containing 30 μM Compound G or medium containing an equal volume of solvent DMSO was added, followed by incubation in a cell culture incubator at 37° C. for 2 hours; the cell medium was aspirated followed by washing once with 10 mL of dPBS, and the aspiration should be as clean as possible.
# The cell culture dish was placed on ice and added with RIPA cell lysis buffer with protease inhibitors and phosphatase inhibitors (for the formulation, please refer to the flow cytometry analysis and sorting section); all cells were scraped off on ice using a cell scraper and collected into 1.5 mL EP tubes; the sample was placed on ice and ultrasonically broken with an ultrasonic power of 20% and with ultrasound 5 times for 3 seconds each time; ENE probe at a final concentration of 100 μM was added to each sample, followed by incubation for 1 hour in the dark while rotating. ENE could react with sulfhydryl groups in protein cysteine residues to produce stable thioether bonds. […]
smiles,measurement,setting,value
"C/C=C1\C(=O)C[C@H]2[C@@H]3CCC4=CC(=O)CC[C@]4(C)[C@H]3CC[C@]12C [Compound G, (Z)-guggulsterone]",abnormal storage of SCMAS protein,SCMAS protein,significant reduction
same,thiol reactivity of the cysteine residues on KEAP1,KEAP1 protein,reduce the thiol reactivity of cysteine residue 288

# Source: patent US20250152605A1, “METHOD AND DRUG FOR TREATING NEURONAL CEROID LIPOFUSCINOSIS” (priority 2021, published 2025)
